Measurements taken from patent publication US9072717B2, “Cosmetic compositions containing alpha glucosidase inhibitors and methods of use” (ELC Management LLC, priority 2007, dated 2015).

Target: T1, α-glucosidase—Saccharomyces cerevisiae recombinant (Saccharomyces cerevisiae, UniProt P53341)
T1 construct: purchased Sigma G0660
Assay: alpha glucosidase inhibitory activity assay (release of p-nitrophenol from p-nitrophenyl-α-D-glucoside)
Format: biochemical
Settings: end concentration in the well 0.8 mM; 'should cause about 50% inhibition'
Protocol: [drawing 1] wherein the α-glucosidase activity is measured by the release of p-nitrophenol, and as further set forth in Example 1.
Materials were tested for alpha glucosidase inhibitory activity as follows:
Materials: Standard laboratory equipment, 96 well half area plates with UV transparent bottom (Costar, 3679), 8 channel multi pipette (20 to 200 μl), and spectrophotometer, Spectra Max Plus (Molecular Devices).
Reagents: • (a) Distilled water • (b) Potassium dihydrogen phosphate • (c) Dimethylsulfoxide (Acros, 12779) • (d) α-glucosidase—Saccharomyces cerevisiae recombinant (min. 125 U/mg protein) (Sigma, G0660) • (e) p-nitrophenol-α-D-glucopyranoside (Sigma, N1377) • (f) Australine hydrochloride, castanospermum australe (Calbiochem, #189422) (reference inhibitor)
60 μl of reference inhibitor is needed per well)
Stock solution of the test sample is prepared using 142 mM potassium phosphate buffer (solubility of test sample can be improved using DMSO/potassium phosphate mixtures. The end concentration of DMSO should not exceed 1% v/v which corresponds to 1.66% DMSO in the sample stock solution. […]
Pipette with 8 channel multi-pipette 20 μl of the enzyme and mix well. […] The absorbance was measured at […].
For each concentration of potential inhibitor, the initial reaction velocity is calculated, being the initial slope of the absorbance vs. time data. […]

T1 sequence (P53341 whole entry): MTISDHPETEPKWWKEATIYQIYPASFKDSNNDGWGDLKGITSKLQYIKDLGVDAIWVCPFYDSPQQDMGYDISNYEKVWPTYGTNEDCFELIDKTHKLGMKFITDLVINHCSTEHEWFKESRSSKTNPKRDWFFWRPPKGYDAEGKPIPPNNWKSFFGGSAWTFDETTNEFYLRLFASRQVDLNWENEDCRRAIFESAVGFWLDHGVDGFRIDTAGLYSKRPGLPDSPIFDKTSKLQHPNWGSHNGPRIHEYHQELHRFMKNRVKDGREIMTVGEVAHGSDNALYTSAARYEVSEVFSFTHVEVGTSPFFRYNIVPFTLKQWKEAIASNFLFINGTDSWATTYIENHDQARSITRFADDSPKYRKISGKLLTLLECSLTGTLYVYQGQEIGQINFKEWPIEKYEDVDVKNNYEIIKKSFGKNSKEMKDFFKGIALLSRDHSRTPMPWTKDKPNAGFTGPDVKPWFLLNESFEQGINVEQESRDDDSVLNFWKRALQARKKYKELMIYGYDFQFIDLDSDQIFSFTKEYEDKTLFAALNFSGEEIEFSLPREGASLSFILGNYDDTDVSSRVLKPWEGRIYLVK

With `Cl.OC[C@@H]1[C@@H](O)[C@H](O)[C@H]2[C@@H](O)CCN21` [Australine HCl, Australine hydrochloride] the “inhibition in the well (reference inhibitor)” value was “about 50%”.
